Reference: patent publication US5750574A, “Fluorinated N-arylmethylamino derivatives of cyclobutene-3,4-diones” (American Home Products Corporation, priority 1997, dated 1998)

Key:
[1] = test system: hypertrophied bladder (detrussor) smooth muscle; test: Inhibition of spontaneous contractions in vivo, hypertrophied rat bladder model; parameters: species or system female Sprague-Dawley rat; conditions: 3 mg/kg p.o.; 4 animals; conscious rats
From the text: In addition, we tested the ability of compounds to inhibit the hyperactivity of hypertrophied bladder (detrussor) smooth muscle in conscious female rats with hypertrophied bladders and thereby alleviate urinary incontinence in rats according to the following protocol described by Malmgren (A. Malmgren, K. E. Andersson, C. Sjogren, P. O. Andersson, Effects of pinacidil and Cromakalim (BRL 34915) on Bladder Function in Rats with Detrusor Instability, J. Urol. 142:1134, 1989.):
Female Sprague-Dawley rats, ranging in weight from 190-210 g are used. Up to 25 animals are prepared each time. After development of bladder hypertrophy 4-8 animals are used per test.
Compounds are dissolved in PEG-200 and administered by gastric gavage or intraveneously in a volume of 5 ml/kg. For primary screening all drugs are administered at the arbitrary dose of 10 mg/kg p.o. to groups of 4 rats.
The animals are anesthetized with halothane. Through a midline incision the bladder and urethra are exposed and a ligature of 4-0 silk is tied around the proximal urethra in the presence of a stainless steel rod (1 mm diameter) to produce a partial occlusion. The rod is then removed. The abdominal region is closed using surgical staples and each rat receives 150,000 units of bicillin C-R. The animals ar allowed six weeks to develop sufficient bladder hypertrophy. After six weeks, the ligature is removed under halothane anesthesia and a catheter (PE 60) with a cuff is placed in the dome of the bladder and secured with a purse string suture. The catheter is tunneled under the skin and exteriorized through an opening in the back of the neck. The abdominal incision is sutured and the free end of the catheter sealed. In order to prevent infections the rats receive an injection of bicillin C-R (150000 units/rat). Two days later the animals are used in cystometrical evaluations. The animals are placed in the metabolic cages and the catheter is attached (using a "T" connector) to a Statham pressure transducer (Model P23Db) and to a Harvard infusion pump. A plastic beaker attached to a force displacement transducer (Grass FT03) is placed under the rat's cage to collect and record urine volume. Animals are allowed 15-30 min to rest before the saline infusion (20 ml/hr for 20 minutes) is started for the first cystometry period. […]
The following urodynamic variables are recorded: […]
The mean value of each variable is calculated before and after compound administration. For each compound the changes in the variables measured are compared to the values obtained before treatment and expressed as percent inhibition. The data are also subjected to 2-way analysis of variance to determine significant (p<0.05) changes in the variable measured. […]

[2] = test system: isolated rat bladder strips (smooth muscle); test: Inhibition of contractions in isolated rat bladder strips; parameters: species or system Sprague-Dawley rat; conditions: 15 mM KCl-enhanced contractions; for IC50: 0.5 h, 30 minute challenge, ± spread; for inhibition at 30 µM: read-out: Percent inhibition at 30 μM (footnote a)
Protocol: The smooth muscle relaxing activity of the compounds of this invention was established in accordance with standard pharmaceutically accepted test procedures with representative compounds as follows:
Sprague-Dawley rats (150-200 g) are rendered unconscious by CO2 asphyxiation and then euthanized by cervical dislocation. The bladder is removed into warm (37° C.) physiological salt solution (PSS) of the following composition (mM): NaCl, 118.4; KCl, 4.7; CaCl2, 2.5; […]; NaHCO3, 24.9; KH2 PO4, 1.2; glucose, 11.1; EDTA, 0.023; gassed with 95% O2; […]; pH 7.4 The bladder is opened and then cut into strips 1-2 mm in width and 7-10 mm in length. The strips are subsequently suspended in a 10 mL tissue bath under an initial resting tension of 1.5 g. The strips are held in place by two surgical clips one of which is attached to a fixed hook while the other is attached to an isometric force transducer. […] The carbachol is then washed out and the tissue allowed to relax to its resting level of activity. Following a further 30 min. period of recovery an additional 15 mM KCl are introduced into the tissue bath. This increase in KCl concentration results in a large increase in the amplitude of spontaneous contractions (and initiation of contractions in previously quiescent strips) superimposed upon a small increase in basal tone. Following stabilization of this enhanced level of contractile activity, incremental increases in the concentration of test compound or vehicle are introduced into the tissue bath. Contractile activity is measured for each compound or vehicle concentration during the last minute of a 30 minute challenge.
The isometric force developed by the bladder strips is measured using a […] to elicit 50% inhibition of pre-drug contractile activity (IC50 concentration) and is calculated from this concentration-response curve.

Row | SMILES | IC50 [2] [nM] | also measured
1 | C[C@@H](Nc1c(NCc2ccc(F)cc2)c(=O)c1=O)C(C)(C)C [Example 1, (R)-3-(4-Fluoro-benzylamino)-4-(1,2,2-trimethyl-propylamino)-cyclobut-3-ene-1,2-dione] | 760 ± 460 | % Ampl: Percent change in the amplitude of spontaneous contractions in the hypertrophied rat bladder model [1]: -64 ± 3%; % Red (F): Percent reduction in the total number of spontaneous contractions in the hypertrophied rat bladder model [1]: 3 ± 25%
2 | C[C@@H](Nc1c(NCc2ccc(C(F)(F)F)cc2)c(=O)c1=O)C(C)(C)C [Example 2, (R)-3-(4-trifluoromethyl-benzylamino)-4-(1,2,2-trimethyl-propylamino)-cyclobut-3-ene-1,2-dione] | 6500 ± 1900 | –
3 | CC(C)(C)Nc1c(NCc2ccc(OC(F)(F)F)cc2)c(=O)c1=O [Example 3, 3-tert-Butylamino-4-(4-trifluoromethoxy-benzylamino)-cyclobut-3-ene-1,2-dione] | – | inhibition at 30 µM [2]: 16.2%
4 | CC(C)(C)Nc1c(NCc2ccc(C(F)(F)F)cc2)c(=O)c1=O [Example 4, 3-tert-Butylamino-4-(4-trifluoromethyl-benzylamino)-cyclobut-3-ene-1,2-dione] | 6500 ± 870 | –
5 | CC(C)(C)Nc1c(NCc2ccc(F)cc2)c(=O)c1=O [Example 5, 3-tert-Butylamino-4-(4-fluoro-benzylamino)-cyclobut-3-ene-1,2-dione] | 1500 ± 320 | –
6 | C[C@@H](Nc1c(NCc2ccc(OC(F)(F)F)cc2)c(=O)c1=O)C(C)(C)C [Example 6, (R)-3-(4-trifluoromethoxy-benzylamino)-4-(1,2,2-trimethyl-propylamino)-cyclobut-3-ene-1,2-dione] | – | inhibition at 30 µM [2]: 20.4%
7 | CCC(C)(C)Nc1c(NCc2ccc(F)cc2)c(=O)c1=O [Example 7, 3-(1,1-Dimethyl-propylamino)-4-(4-fluoro-benzylamino)-cyclobut-3-ene-1,2 dione] | 360 ± 140 | % Ampl: Percent change in the amplitude of spontaneous contractions in the hypertrophied rat bladder model [1]: -3 ± 35%; % Red (F): Percent reduction in the total number of spontaneous contractions in the hypertrophied rat bladder model [1]: 67 ± 2%
8 | CC(C)(C)Nc1c(NCc2cccc(F)c2)c(=O)c1=O [Example 8, 3-tert-Butylamino-4-(3-fluoro-benzylamino)-cyclobut-3-ene-1,2-dione] | 2400 ± 360 | –
9 | CC(C)(C)Nc1c(NCc2ccccc2F)c(=O)c1=O [Example 9, 3-tert-Butylamino-4-(2-fluoro-benzylamino)-cyclobut-3-ene-1,2-dione] | 2080 ± 250 | –
10 | CC(C)(C)Nc1c(NCc2cccc(C(F)(F)F)c2)c(=O)c1=O [Example 10, 3-tert-Butylamino-4-(3-trifluoromethyl-benzylamino)-cyclobut-3-ene-1,2-dione] | 7900 ± 2700 | –
11 | CC(C)(C)Nc1c(NCc2ccccc2C(F)(F)F)c(=O)c1=O [Example 11, 3-tert-Butylamino-4-(2-trifluoromethyl-benzylamino)-cyclobut-3-ene-1,2-dione] | 2300 ± 510 | –
12 | CC(C)(C)Nc1c(NCc2cccc(OC(F)(F)F)c2)c(=O)c1=O [Example 12, 3-tert-Butylamino-4-(3-trifluoromethoxy-benzylamino)-cyclobut-3-ene-1,2-dione] | 13600 ± 3300 | –
13 | C[C@@H](Nc1c(NCc2cccc(C(F)(F)F)c2)c(=O)c1=O)C(C)(C)C [Example 13, (R)-3-(3-trifluoromethyl-benzylamino)-4-(1,2,2-trimethyl-propylamino) cyclobut-3-ene-1,2-dione] | – | inhibition at 30 µM [2]: 40.1%
14 | C[C@@H](Nc1c(NCc2ccccc2C(F)(F)F)c(=O)c1=O)C(C)(C)C [Example 14, (R)-3-(2-trifluoromethyl-benzylamino)-4-(1,2,2-trimethyl-propylamino) cyclobut-3-ene-1,2-dione] | 20400 ± 7800 | –
15 | C[C@@H](Nc1c(NCc2ccccc2F)c(=O)c1=O)C(C)(C)C [Example 15, (R)-3-(2-fluoro-benzylamino)-4-(1,2,2-trimethyl-propylamino) cyclobut-3-ene-1,2-dione] | 1230 ± 220 | –
16 | C[C@@H](Nc1c(NCc2cccc(OC(F)(F)F)c2)c(=O)c1=O)C(C)(C)C [Example 16, (R)-3-(3-trifluoromethoxy-benzylamino)-4-(1,2,2-trimethyl-propylamino)-cyclobut3-ene-1,2-dione] | – | inhibition at 30 µM [2]: 10%
